Experimental data taken from US20260109690A1, “HDAC6 INHIBITORS AND METHOD OF THEIR USE” (Baerenkraft Therapeutics, LLC., priority 2024, published 2026).

How the values were obtained:
[1] = Tg2576 study: bioanalysis; type: in vivo, mice
Text: At termination, animals were given a final dose, and under mild anesthesia, blood was collected retro-orbitally and separated plasma were utilized for bio analysis (G3) and ex vivo analysis. Then animals were euthanized under CO2 asphyxiation and brain tissue was collected and divided into two equal hemispheres. One hemisphere was fixed in 10% NBF for immunohistochemistry and from another hemisphere, dissected cortex and hippocampus was utilized for ex vivo analysis.
At the end of the experiment, animals in group G3 were dosed with the test compound, blood was collected under mild anesthesia, and separated plasma was utilized for drug bioanalysis by LC-MS/MS.

Tg2576 AD Disease Mice = test: Tg2576 study: Morris water maze test; type: in vivo; conditions: G3 Tg2576 mice, 50 mg/kg then 80 mg/kg from day 36 p.o.; 9th month, probe test
Method: Mice were weighed and randomized into groups. All the test formulations were freshly administered to respective animals of each group as per body weight. Basal behavior of the animals was recorded and analyzed in open field, Y-Maze, and EPM. Post basal behavior, animals were treated with compound I-16 for the duration of 3 months (i.e., from 6 months until 9 months). During the treatment duration, animals were subjected to different behavioral tests such as OFT, Y-maze, and EPM at 7, 8 and 9 months. At the end of experiments (i.e., at 9 months) animals were subjected to Morris water maze test.
Animals were subjected to MWM to test spatial working memory. Animals were subjected to habituation, acquisition, and probe trial phase. On day 0, animals were habituated to the Morris water maze tank filled with water for a duration of 90 seconds. During the acquisition phase from day 1 to 4, animals were allowed to swim or search the hidden platform for a duration of 60 seconds. Animals were subjected to a total of 4 trials from 4 different positions each day. On the day of the probe test, animals were allowed to swim for a duration of 60 seconds without platform and time spent in the target quadrant was recorded. During the acquisition phase, latency to reach the platform was calculated.

Brain Conc (ng/mL) ([1]; G3 Tg2576 mice, end of experiment, 9 hr post dose): No Peak | plasma concentration time course ([1]; G3 mice bled at different time points after the water maze test): time course dependent decrease | concentration at 2 h ([1]; male, mouse, plasma, oral, G3 Tg2576 mice, end of experiment, 2 hr post dose, read-out: Plasma Concentrations): 106 ± 13.8 ng/mL | concentration at 4 h ([1]; male, mouse, plasma, oral, G3 Tg2576 mice, end of experiment, 4 hr post dose, read-out: Plasma Concentrations): 32.6 ± 4.75 ng/mL | concentration at 6 h ([1]; male, mouse, plasma, oral, G3 Tg2576 mice, end of experiment, 6 hr post dose, read-out: Plasma Concentrations): 19 ± 4.16 ng/mL | concentration at 8 h ([1]; male, mouse, plasma, oral, G3 Tg2576 mice, end of experiment, 8 hr post dose, read-out: Plasma Concentrations): 12.1 ± 2.1 ng/mL
SMILES: C[C@@H]1CN(Cc2ccc(Nc3nccc(-c4ccc(C(=O)NO)cc4)n3)cc2F)CCO1 [Compound I-16, (R)-4-(2-((3-fluoro-4-((2-methylmorpholino)methyl)phenyl)amino)pyrimidin-4-yl)-N-hydroxybenzamide]
Morris Water Maze time spent in NW (Target Quadrant) (Tg2576 AD Disease Mice): 15.49 ± 1.80 s
